Experimental data reported in patent US20230320957A1, “COMPOSITION FOR ANTI-AGING OR SKIN REGENERATION COMPRISING ISOPROCURCUMENOL” (POSCO, priority 2020, published 2023).

Columns and labels:
Format in all cases: cell-based
[1] = test system: HaCaT cells; experiment: MTT cytotoxicity assay in HaCaT keratinocytes
Experimental: The cytotoxicity of Isoprocurcumenol was measured using HaCaT cells as keratinocytes.
When cells are treated with MTT tetrazolium which is a yellow water-soluble substrate, such a substrate is reduced to MTT formazan by mitochondrial enzymes, and the color changes to blue-purple. That is, since the blue-violet color appears darker as the number of living cells increases, the blue-violet absorbance at a wavelength of 540 nm reflects the concentration of living cells.
Specifically, after culturing cells to fill each well of a 96-well plate, the cells were treated with Isoprocurcumenol at concentrations of 0, 10, 25, 50 and 100 μM, and cultured for 24 hours and 48 hours in a 5% CO2 incubator at 37° C. Thereafter, cell viability was measured using MTT reagent. A control group not treated with Isoprocurcumenol (0 μM) was treated with the same amount of the solvent DMSO.

[2] = test system: HaCaT cells; experiment: Wound healing assay; conditions: 1 μM
Experimental: The cell growth promoting effect of Isoprocurcumenol was confirmed through wound healing assay. Specifically, after fully culturing HaCaT cells in a 12-well plate, cells on a certain area were scraped off using a yellow tip to form a wound area, changed to a serum-free medium, and treated with 1 μM of Isoprocurcumenol.

[3] = test system: HaCaT cells; experiment: CCK-8 assay of growth and proliferation of keratinocytes; conditions: 24 hours, serum-free medium, p<0.05
Experimental: Cell counting kit-8 (CCK-8) is a water-soluble tetrazolium salt reagent called WST-8 and forms orange-colored water-soluble Formazan by dehydrogenase in the mitochondria of living cells.
Specifically, after culturing 1×10^4 HaCaT cells in a 96-well plate for 24 hours, the cells were changed to a serum-free medium to remove the growth factors contained in the medium, and treated with Isoprocurcumenol at the concentrations of 1 nM, 10 nM, 100 nM, 1 μM and 10 μM. […] After cultured for 24 hours, the cells were treated with CCK8, and the cell growth was analyzed by measuring absorbance at 450 nm.

[4] = biological target: EGFR (Homo sapiens, UniProt P00533); experiment: EGFR activity measurement biosensor system (EGFP-SH2 fluorescence); conditions: 100 μM; cells cultured 24 hours in serum-free medium; compared to DMSO control
Experimental: In addition, by using the feature that, when the activities of the EGFR continue to be maintained, the EGFR is internalized into the cell, the cell of the biosensor system that may measure the activities of the EGFR was used in the present experimentation (see Korean Laid-open Patent Publication No. 2019-0014340).
After culturing the cells in a serum-free medium for 24 hours, the cells were treated with Isoprocurcumenol.

[5] = test system: HaCaT cells; experiment: Resistance to UVB-induced cell damage (CCK-8 viability); conditions: 1 μM, UVB 500 mJ/cm2, serum-free medium, negative control about 40%
Experimental: Among the ultraviolet wavelengths, UVB wavelengths corresponding to 280 to 315 nm penetrate the epidermal layer where many keratinocytes exist to cause cell damage.
The solvent DMSO was used as a negative control group, and the cell viability was measured using the CCK-8 method used in Experimental Example 6.

[6] = test system: AKT; experiment: AKT activation (phosphorylation) by Western blotting in HaCaT cells; conditions: 10 μM
Experimental: (§1) It is well known that the activities of extracellular signal-regulated kinase (ERK) and protein kinase B (AKT) transmit signals necessary for cell growth and survival by the activities of an EGFR. In addition, in Experimental Example 1, it was observed that Isoprocurcumenol generated signals due to activation of the EGFR in the cells of the biosense system for measuring the activities of the EGFR. Accordingly, it was measured whether the activities of the EGFR were induced by Isoprocurcumenol to the activities of the ERK and AKT.
(§2) Specifically, HaCaT cells were cultured in a serum-free medium, treated with 10 μM of Isoprocurcumenol for 10 minutes, 30 minutes and 60 minutes, respectively, and, thereafter, phosphorylated and activated ERK and AKT were analyzed by Western blotting. As antibodies, a phosphorylation antibody as a marker of activated ERK and AKT, and a general antibody for measuring all thereof were used, respectively.

[7] = test system: c-myc; experiment: c-myc gene expression by real-time quantitative PCR in HaCaT cells; conditions: 10 μM, 1 hour, serum-free medium
Excerpt: (§3) Signaling by an EGFR induces the expression of genes important for cell growth and survival through important signaling mediator proteins such as ERK and AKT. The egr1, c-myc, c-jun and c-fos genes are regulated by the EGFR and are well known as genes that promote cell growth and survival.
(§4) Specifically, Tri-reagent was used for mRNA extraction, cDNA was created by a reverse transcription polymerase chain reaction (RT-PCR) using a poly-A primer and a reverse transcriptase, and real-time quantitative PCR was used to measure the amount of each mRNA. The amount of each mRNA was corrected with the amount of β-actin, which is a constitutive gene.

[8] = test system: c-jun; experiment: c-jun gene expression by real-time quantitative PCR in HaCaT cells; conditions: 10 μM, 1 hour, serum-free medium
Excerpt: as §3, §4

[9] = test system: ERK; experiment: ERK activation (phosphorylation) by Western blotting in HaCaT cells; conditions: 10 μM
Experimental: as §1, §2

[10] = test system: c-fos; experiment: c-fos gene expression by real-time quantitative PCR in HaCaT cells; conditions: 10 μM, 1 hour, serum-free medium
Excerpt: as §3, §4

[11] = test system: egr1; experiment: egr1 gene expression by real-time quantitative PCR in HaCaT cells; conditions: 10 μM, 1 hour, serum-free medium
Excerpt: as §3, §4

Chain of EGFR (P00533 25-1210, species assumed): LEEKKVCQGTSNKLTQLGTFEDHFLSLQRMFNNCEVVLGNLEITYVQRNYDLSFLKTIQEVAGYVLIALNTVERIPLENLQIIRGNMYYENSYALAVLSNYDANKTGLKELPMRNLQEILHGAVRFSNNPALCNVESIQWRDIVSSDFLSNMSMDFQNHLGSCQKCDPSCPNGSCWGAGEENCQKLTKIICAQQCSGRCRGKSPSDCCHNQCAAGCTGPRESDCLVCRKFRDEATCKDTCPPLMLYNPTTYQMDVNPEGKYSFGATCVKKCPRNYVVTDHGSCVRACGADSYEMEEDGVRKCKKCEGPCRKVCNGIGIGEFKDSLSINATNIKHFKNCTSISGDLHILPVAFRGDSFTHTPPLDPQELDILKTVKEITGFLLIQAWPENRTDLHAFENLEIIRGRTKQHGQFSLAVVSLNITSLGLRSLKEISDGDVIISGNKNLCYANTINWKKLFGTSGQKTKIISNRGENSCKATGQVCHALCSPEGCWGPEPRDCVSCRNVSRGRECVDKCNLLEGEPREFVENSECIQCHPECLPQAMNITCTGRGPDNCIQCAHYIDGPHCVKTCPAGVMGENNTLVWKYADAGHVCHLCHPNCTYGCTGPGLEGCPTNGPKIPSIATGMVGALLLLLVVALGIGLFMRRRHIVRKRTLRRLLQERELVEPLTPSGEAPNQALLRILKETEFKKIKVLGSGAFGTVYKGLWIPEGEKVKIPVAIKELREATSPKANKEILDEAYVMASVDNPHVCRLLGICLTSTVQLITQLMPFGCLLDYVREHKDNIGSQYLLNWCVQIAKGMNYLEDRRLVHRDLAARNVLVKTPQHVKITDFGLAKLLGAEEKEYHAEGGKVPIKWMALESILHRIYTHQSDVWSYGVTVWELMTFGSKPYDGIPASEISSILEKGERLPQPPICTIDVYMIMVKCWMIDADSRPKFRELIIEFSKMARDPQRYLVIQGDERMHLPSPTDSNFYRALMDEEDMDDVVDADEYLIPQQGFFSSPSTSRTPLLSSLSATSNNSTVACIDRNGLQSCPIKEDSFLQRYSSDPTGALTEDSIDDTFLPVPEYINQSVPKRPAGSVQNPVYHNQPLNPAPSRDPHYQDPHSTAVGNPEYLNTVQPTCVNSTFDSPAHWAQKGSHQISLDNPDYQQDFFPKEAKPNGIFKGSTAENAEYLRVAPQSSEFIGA

C=C1CC(=O)C(=C(C)C)C[C@H]2[C@H]1CC[C@]2(C)O [Isoprocurcumenol]
cytotoxicity in keratinocytes (overall) ([1]; 0-100 μM, 24 hours and 48 hours, MTT): very low | cytotoxicity (difference in cell viability) ([1]; 100 μM, cultured 48 hours, MTT): 10% | cytotoxicity ([1]; concentration of 10 μM or less): free of cytotoxicity | filling of wound area vs negative control ([2]; culture for 6 days, serum-free medium): more quickly filled | difference in wound area vs negative control ([2]; from the 3rd day, t-test p<0.05): more significant difference | growth and proliferation of cells vs negative control ([3]; 10 nM): significantly increased | growth and proliferation of cells vs negative control ([3]; 100 nM): significantly increased | growth and proliferation of cells vs negative control ([3]; 1 μM): significantly increased | growth and proliferation of cells vs negative control ([3]; 10 μM): significantly increased | EGFR activation (fluorescence signal of biosensor cells) [4]: activated | cells survived after UVB [5]: about 60% | time to AKT activation [6]: ≤ 30 min | induction of AKT activity ([6]; 10 minutes, serum-free medium): sufficiently induced | c-myc mRNA (corrected with β-actin) [7]: increased | c-jun mRNA (corrected with β-actin) [8]: increased | time to ERK activation [9]: ≤ 30 min | induction of ERK activity ([9]; 10 minutes, serum-free medium): sufficiently induced | c-fos mRNA (corrected with β-actin) [10]: increased | egr1 mRNA (corrected with β-actin) [11]: increased
